Read-outs that look alike come from different tables or passages of the source.
Assays:
Type in all cases: biochemical
PDGFRa = PDGFRa (Homo sapiens, UniProt P16234); assay: Inhibition profile at 500 nM: PDGFRa; settings: 500 nM test compound, read-out: Percent inhibition PDGFRa
Protocol: (§1) Then enzyme substrate is added as 10 μl of 2.5×FAM-labeled peptide+ATP solution to each well of the 384-well assay plate The reaction is allowed to proceed at 28° C. and quenched with the addition of 25 μl of stop buffer. The release of fluorescent FAM is quantitated as Percent inhibition=(max−conversion)/(max−min)*100.sp; “max” stands for DMSO control; “min” stands for low control. Convert conversion values to inhibition values. Percent inhibition=(max−conversion)/(max−min)*100. “max” stands for DMSO control; “min” stands for low control.

LCK = LCK (Homo sapiens, UniProt P06239); assay: Inhibition profile at 500 nM: LCK; settings: 500 nM test compound, read-out: Percent inhibition LCK
Protocol: as §1

SRC = SRC (Homo sapiens, UniProt P12931); assay: Inhibition profile at 500 nM: SRC; settings: 500 nM test compound, read-out: Percent inhibition SRC
Sequence of SRC (P12931 whole entry): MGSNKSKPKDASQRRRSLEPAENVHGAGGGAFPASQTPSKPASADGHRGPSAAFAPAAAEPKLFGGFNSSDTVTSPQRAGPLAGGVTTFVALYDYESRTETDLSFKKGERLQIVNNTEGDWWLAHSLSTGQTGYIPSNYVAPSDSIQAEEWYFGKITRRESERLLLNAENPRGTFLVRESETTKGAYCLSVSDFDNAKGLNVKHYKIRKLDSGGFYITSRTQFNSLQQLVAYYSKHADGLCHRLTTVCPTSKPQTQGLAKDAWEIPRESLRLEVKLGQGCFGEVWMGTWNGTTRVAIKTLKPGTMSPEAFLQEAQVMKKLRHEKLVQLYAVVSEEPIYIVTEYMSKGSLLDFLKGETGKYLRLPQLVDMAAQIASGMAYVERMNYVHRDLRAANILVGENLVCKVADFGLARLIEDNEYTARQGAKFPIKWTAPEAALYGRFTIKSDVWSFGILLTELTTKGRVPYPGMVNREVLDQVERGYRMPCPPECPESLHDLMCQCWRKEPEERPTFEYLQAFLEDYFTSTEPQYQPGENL
Protocol: as §1

ABL = ABL (Homo sapiens, UniProt P00519); assay: Inhibition profile at 500 nM: ABL / Abl1; settings: 500 nM test compound; Table 1; read-out: Percent inhibition ABL
Protocol: as §1

FLT3 = FLT3 (Homo sapiens, UniProt P36888); assay: Inhibition profile at 500 nM: FLT3; settings: 500 nM test compound, read-out: Percent inhibition FLT3
Sequence of FLT3 (P36888 27-993): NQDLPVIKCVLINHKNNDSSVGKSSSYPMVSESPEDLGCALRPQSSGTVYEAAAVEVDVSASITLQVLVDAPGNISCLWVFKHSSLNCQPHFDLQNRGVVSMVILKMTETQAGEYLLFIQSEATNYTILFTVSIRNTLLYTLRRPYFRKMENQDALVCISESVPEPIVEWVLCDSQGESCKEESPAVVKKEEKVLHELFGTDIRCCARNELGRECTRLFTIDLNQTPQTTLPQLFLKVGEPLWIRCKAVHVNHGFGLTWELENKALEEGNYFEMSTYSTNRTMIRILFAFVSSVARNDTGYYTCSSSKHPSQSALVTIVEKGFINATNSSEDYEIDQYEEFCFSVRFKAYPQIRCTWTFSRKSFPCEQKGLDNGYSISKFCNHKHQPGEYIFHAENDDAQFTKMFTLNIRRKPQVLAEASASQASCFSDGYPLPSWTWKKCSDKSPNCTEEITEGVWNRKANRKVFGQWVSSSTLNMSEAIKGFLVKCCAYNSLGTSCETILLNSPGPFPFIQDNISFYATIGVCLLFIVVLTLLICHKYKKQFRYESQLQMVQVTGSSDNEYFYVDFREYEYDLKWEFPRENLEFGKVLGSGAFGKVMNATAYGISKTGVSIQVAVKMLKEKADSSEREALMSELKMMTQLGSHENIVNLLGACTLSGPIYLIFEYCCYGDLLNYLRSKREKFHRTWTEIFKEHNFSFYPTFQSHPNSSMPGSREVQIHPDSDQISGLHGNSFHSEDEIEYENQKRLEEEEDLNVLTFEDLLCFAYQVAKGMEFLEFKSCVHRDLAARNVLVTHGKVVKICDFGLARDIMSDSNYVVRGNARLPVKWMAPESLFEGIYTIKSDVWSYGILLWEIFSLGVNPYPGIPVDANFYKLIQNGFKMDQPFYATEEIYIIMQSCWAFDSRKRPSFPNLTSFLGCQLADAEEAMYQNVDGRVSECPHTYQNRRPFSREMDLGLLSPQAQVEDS
Protocol: as §1

KIT = KIT (Homo sapiens, UniProt P10721); assay: Inhibition profile at 500 nM: KIT; settings: 500 nM test compound; Table 1; read-out: Percent inhibition KIT
Protocol: as §1

PDGFRb = PDGFRb (Homo sapiens, UniProt P09619); assay: Inhibition profile at 500 nM: PDGFRb; settings: 500 nM test compound, read-out: Percent inhibition PDGFRb
Protocol: as §1

FGR = FGR (Homo sapiens, UniProt P09769); assay: Inhibition profile at 500 nM: FGR; settings: 500 nM test compound, read-out: Percent inhibition FGR
Protocol: as §1

LYNA = LYNA (Homo sapiens, UniProt P07948); assay: Inhibition profile at 500 nM: LYNA; settings: 500 nM test compound, read-out: Percent inhibition LYNA
Sequence of LYNA (P07948 whole entry): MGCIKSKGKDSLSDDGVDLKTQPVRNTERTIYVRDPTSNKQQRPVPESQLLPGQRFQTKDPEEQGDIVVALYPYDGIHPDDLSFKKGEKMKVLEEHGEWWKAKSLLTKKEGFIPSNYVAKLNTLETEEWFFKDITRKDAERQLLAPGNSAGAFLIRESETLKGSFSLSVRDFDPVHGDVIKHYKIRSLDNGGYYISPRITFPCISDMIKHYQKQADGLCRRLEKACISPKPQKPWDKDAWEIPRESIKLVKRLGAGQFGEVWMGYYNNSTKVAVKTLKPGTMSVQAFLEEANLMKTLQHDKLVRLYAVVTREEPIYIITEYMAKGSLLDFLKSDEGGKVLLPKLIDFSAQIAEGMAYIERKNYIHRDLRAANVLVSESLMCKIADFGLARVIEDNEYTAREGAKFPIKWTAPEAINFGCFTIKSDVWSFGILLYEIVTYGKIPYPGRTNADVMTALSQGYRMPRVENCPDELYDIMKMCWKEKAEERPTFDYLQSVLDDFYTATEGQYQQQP
Protocol: as §1

ARG/Abl2 = ARG/Abl2 (Homo sapiens, UniProt P42684); assay: Inhibition profile at 500 nM: ARG/Abl2; settings: 500 nM test compound
Sequence of ARG/Abl2 (P42684 whole entry): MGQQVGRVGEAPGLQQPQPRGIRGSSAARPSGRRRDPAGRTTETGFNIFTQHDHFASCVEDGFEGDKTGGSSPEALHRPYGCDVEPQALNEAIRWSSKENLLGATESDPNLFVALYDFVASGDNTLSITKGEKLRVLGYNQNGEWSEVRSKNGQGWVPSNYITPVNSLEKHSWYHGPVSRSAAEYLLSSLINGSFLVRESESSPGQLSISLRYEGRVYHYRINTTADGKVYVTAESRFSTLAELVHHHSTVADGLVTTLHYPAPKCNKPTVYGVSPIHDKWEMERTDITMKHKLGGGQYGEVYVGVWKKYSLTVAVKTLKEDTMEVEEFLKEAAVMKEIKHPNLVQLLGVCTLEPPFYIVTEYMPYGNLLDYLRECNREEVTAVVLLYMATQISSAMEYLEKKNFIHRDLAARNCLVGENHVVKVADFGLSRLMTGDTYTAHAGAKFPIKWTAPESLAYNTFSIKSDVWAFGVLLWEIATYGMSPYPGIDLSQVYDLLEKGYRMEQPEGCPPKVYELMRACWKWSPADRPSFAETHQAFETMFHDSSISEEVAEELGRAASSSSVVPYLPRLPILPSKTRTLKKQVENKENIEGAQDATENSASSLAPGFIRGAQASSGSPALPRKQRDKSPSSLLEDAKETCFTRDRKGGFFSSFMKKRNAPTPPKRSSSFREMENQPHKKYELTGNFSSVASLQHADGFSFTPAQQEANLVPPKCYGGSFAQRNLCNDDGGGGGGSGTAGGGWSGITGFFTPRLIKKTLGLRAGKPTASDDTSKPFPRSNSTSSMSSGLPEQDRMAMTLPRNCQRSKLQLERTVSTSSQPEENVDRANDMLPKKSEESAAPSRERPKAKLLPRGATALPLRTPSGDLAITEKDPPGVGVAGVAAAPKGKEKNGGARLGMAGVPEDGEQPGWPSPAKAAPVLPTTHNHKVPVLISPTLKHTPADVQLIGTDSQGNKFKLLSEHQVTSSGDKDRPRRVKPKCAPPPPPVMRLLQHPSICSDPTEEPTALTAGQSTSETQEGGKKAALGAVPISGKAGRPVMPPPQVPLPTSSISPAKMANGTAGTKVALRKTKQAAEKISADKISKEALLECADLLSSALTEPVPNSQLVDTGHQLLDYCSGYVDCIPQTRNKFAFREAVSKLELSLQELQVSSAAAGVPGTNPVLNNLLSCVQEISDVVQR
Protocol: as §1

FES = FES (Homo sapiens, UniProt P07332); assay: Inhibition profile at 500 nM: FES; settings: 500 nM test compound, read-out: Percent inhibition FES
Sequence of FES (P07332 whole entry): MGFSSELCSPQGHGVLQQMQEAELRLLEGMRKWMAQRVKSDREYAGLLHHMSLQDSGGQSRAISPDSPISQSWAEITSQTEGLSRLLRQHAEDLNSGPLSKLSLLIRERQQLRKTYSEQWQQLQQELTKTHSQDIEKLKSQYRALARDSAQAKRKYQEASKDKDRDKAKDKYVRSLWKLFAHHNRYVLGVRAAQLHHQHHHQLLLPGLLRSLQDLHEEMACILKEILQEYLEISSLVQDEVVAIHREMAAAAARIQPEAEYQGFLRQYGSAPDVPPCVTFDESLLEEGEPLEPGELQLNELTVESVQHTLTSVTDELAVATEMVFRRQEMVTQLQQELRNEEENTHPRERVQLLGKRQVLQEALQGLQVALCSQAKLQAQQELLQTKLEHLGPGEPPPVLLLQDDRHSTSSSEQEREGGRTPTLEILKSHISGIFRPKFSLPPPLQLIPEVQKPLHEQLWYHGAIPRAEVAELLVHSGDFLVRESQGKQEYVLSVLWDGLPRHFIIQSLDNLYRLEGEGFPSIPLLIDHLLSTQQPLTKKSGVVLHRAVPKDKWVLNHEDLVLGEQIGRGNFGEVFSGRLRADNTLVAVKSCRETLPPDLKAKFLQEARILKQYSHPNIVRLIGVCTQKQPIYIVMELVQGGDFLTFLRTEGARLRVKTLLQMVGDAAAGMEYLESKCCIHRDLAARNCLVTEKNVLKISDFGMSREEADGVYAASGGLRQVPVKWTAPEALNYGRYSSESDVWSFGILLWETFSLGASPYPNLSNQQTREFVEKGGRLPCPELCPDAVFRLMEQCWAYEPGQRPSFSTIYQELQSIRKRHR
Protocol: as §1

FYN = FYN (Homo sapiens, UniProt P06241); assay: Inhibition profile at 500 nM: FYN; settings: 500 nM test compound, read-out: Percent inhibition FYN
Sequence of FYN (P06241 whole entry): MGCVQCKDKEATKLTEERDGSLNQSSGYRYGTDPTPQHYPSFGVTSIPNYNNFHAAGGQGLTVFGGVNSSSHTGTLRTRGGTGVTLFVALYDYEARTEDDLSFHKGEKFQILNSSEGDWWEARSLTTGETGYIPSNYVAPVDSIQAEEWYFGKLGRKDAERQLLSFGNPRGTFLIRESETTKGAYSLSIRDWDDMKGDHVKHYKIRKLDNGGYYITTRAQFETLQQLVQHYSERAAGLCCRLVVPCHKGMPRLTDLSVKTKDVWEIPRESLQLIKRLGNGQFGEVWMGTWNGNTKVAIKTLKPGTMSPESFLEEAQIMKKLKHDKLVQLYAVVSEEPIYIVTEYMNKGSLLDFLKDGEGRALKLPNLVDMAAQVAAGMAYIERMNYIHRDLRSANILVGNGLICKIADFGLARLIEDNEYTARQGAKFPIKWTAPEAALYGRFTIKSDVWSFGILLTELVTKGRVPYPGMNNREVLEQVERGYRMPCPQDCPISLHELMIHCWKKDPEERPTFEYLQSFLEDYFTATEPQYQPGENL
Protocol: as §1

JNK2 = JNK2 (Homo sapiens, UniProt P45984); assay: Inhibition profile at 500 nM: JNK2; settings: 500 nM test compound, read-out: Percent inhibition JNK2
Sequence of JNK2 (P45984 whole entry): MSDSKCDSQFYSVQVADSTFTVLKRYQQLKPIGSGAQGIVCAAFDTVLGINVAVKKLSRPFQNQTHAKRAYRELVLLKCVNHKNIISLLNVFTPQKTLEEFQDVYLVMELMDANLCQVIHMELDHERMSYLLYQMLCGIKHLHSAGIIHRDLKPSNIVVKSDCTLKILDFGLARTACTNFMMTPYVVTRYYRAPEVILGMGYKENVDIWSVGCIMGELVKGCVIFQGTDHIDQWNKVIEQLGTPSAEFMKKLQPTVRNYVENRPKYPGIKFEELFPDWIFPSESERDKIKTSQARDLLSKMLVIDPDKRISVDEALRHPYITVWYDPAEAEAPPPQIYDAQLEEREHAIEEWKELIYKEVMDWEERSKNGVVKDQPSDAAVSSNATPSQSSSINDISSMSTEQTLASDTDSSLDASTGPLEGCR
Protocol: as §1

YES = YES (Homo sapiens, UniProt P07947); assay: Inhibition profile at 500 nM: YES; settings: 500 nM test compound; Table 2; read-out: Percent inhibition YES
Protocol: as §1

JNK1 = JNK1 (Homo sapiens, UniProt P45983); assay: Inhibition profile at 500 nM: JNK1; settings: 500 nM test compound; Table 2; read-out: Percent inhibition JNK1
Protocol: as §1

CMT = assay: Inhibition profile at 500 nM: CMT; settings: 500 nM test compound; Table 2
Protocol: as §1

In the case of `Cc1ccc(NC(=O)c2ccc(CN3CCN(C)CC3)cc2)cc1Nc1nccc(-c2cncc(-c3ccn[nH]3)c2)n1` [Compound 107], the inhibition at 0.5 µM (PDGFRa; Table 1) was 59%, the inhibition at 0.5 µM (LCK; Table 1) was 95% and the inhibition at 0.5 µM (SRC; Table 1) was 28%. It also gave an inhibition at 0.5 µM (ABL) of 91%, an inhibition at 0.5 µM (FLT3; Table 1) of 51% and an inhibition at 0.5 µM (KIT) of 99%. It also gave an inhibition at 0.5 µM (PDGFRb; Table 1) of 101%, an inhibition at 0.5 µM (FGR; Table 1) of 82% and an inhibition at 0.5 µM (LYNA; Table 1) of 93%. The inhibition at 0.5 µM (ARG/Abl2; Table 1, read-out: Percent inhibition ARG/Abl2) was 87%, the inhibition at 0.5 µM (FES; Table 1) was 28% and the inhibition at 0.5 µM (FYN; Table 1) was 69%. The inhibition at 0.5 µM (JNK2; Table 1) was 1.7%.

With `Cc1ccc(NC(=O)c2ccc(CN3CCN(C)CC3)cc2)cc1Nc1nccc(-c2cncc(-c3cnn(C)c3)c2)n1` [Compound 8300] the inhibition at 0.5 µM (YES) was 63%, the inhibition at 0.5 µM (PDGFRa; Table 2) was 99% and the inhibition at 0.5 µM (LCK; Table 2) was 97%. It also gave an inhibition at 0.5 µM (SRC; Table 2) of 45%, an inhibition at 0.5 µM (FLT3; Table 2) of 61% and an inhibition at 0.5 µM (PDGFRb; Table 2) of 98%. For the same compound, the inhibition at 0.5 µM (FGR; Table 2) was 81%, the inhibition at 0.5 µM (LYNA; Table 2) was 108% and the inhibition at 0.5 µM (ARG/Abl2; Table 2, read-out: Percent inhibition Abl2) was 89%. The inhibition at 0.5 µM (FES; Table 2) was 19%, the inhibition at 0.5 µM (FYN; Table 2) was 90% and the inhibition at 0.5 µM (JNK2; Table 2) was 30%. For the same compound, the inhibition at 0.5 µM (JNK1) was 35% and the “Percent inhibition CMT” value (CMT) was 88%.

— patent US12629371B2, “Compositions and methods for inhibiting kinases” (Inhibikase Therapeutics, Inc., priority 2016, dated 2026)
